Source: patent US20100040738A1, “Extension Of Beverage Shelf-Stability By Solute-Ligand Complexes” (PepsiCo., Inc., priority 2008, published 2010)
≈ marks a conversion by molar mass, not a printed value. Read-outs that look alike come from different tables or passages of the source.

Assays:
[1] = Solubility limit in model beverage system, non-complex form or cyclodextrin complex; type: physicochemical; details: for solubility limit / limit of solubility in beverage: non-complex form; for limit of solubility in beverage: across test beverages
Method: The base composition of the model beverage per liter is:
A model high acid beverage system (pH <4.6) of 10% juice content was prepared to test efficacy of methoxycinnamate either in the non-complex form or as the alpha (α) or beta (β) cyclodextrin-included (complex) form. The base composition of the model beverage per liter is:
A model low acid beverage system (pH ≧4.6) with high water activity (>0.97) was prepared to test efficacy of methoxycinnamate either in the non-complex form or as the alpha (α) or beta (β) cyclodextrin-included (complex) form. The base composition of the model beverage per liter is:
A model high acid beverage system (pH <4.6) of 10% juice content was prepared to test efficacy of trans, trans 2,4 decadienal either in the non-complex form or as the alpha (α) or beta (β) cyclodextrin-included (complex) form. The base composition of the model beverage per liter is:
A model low acid beverage system (pH ≧4.6) with high water activity (>0.97) was prepared to test efficacy of trans, trans 2,4 decadienal either in the non-complex form or as the alpha (α) or beta (β) cyclodextrin-included (complex) form. The base composition of the model beverage per liter is: […]

[2] = tested on: Saccharomyces cerevisiae, Zygosaccharomyces balii and Zygosaccharomyces bisporus; assay: Inhibition of growth of 3 spoilage yeast in model beverage, 16 weeks incubation; type: cell-based; details: for amount in complex required to inhibit growth of 3 different spoilage yeast: in complex with alpha or beta cyclodextrin
Method: (§1) In each of the examples below, the period of incubation is 16 weeks which relates to the standard shelf life period for beverages distributed at ambient temperature. If a chemical simply retards growth for a period less than 16 weeks, then it will not fulfill the need of the manufacturer. The concentration of the chemical employed to prohibit spoilage is often reported as the Minimum Inhibitory Concentration (MIC). The MIC value of a candidate compound for use as a beverage preservative is the concentration of the candidate which permits the beverage to remain free of spoilage for a period of 16 weeks.
(§2) The base composition of the model beverage per liter is: […]
as §2
A model high acid beverage system (pH <4.6) of 10% juice content was prepared to test efficacy of methoxycinnamate either in the non-complex form or as the alpha (α) or beta (β) cyclodextrin-included (complex) form. The base composition of the model beverage per liter is: […]

spoilage organisms = assay: MIC of antimicrobial candidates (Table II); type: cell-based
Method: “Minimal inhibitory concentration” (MIC) is another term for which no standard time period is included in the definition.
as §1

[3] = high acid model beverage pH 3.4, 10% grape juice (Example 3)
[4] = low acid model tea beverage pH 5.3 (Examples 4 and 6)
[5] = at limit of solubility, summary of examples
[6] = at solubility limit concentration, low acid model tea beverage pH 5.3 (Examples 4 and 6)
[7] = in complex with α-cyclodextrin, low acid model tea beverage pH 5.3 (Examples 4 and 6)
[8] = in complex with β-cyclodextrin, low acid model tea beverage pH 5.3 (Examples 4 and 6)
[9] = high acid model beverage pH 3.4, 5% grape and 5% apple juice (Example 5)

methoxycinnamate
solubility in the form of a complex with alpha or beta cyclodextrin [1, 3]: ≤ 3.69 mg/mL | solubility in the form of a complex with alpha or beta cyclodextrin [1, 4]: ≤ 3.411 mg/mL | solubility limit [1, 3]: 0.498 mg/mL | solubility limit [1, 4]: 0.6 mg/mL | limit of solubility in beverage ([1]; summary of examples): 0.498 to 0.6 mg/mL | solubility in the form of a complex with alpha or beta cyclodextrin ([1]; summary of examples): ≤ 3.6 mg/mL | effective as a stand alone chemical preservative [2, 5]: not effective | effective as a stand alone chemical preservative ([2]; at solubility limit concentration, high acid model beverage pH 3.4, 10% grape juice (Example 3)): not effective | effective as a stand alone chemical preservative [2, 6]: did not prove effective | amount in complex required to inhibit growth of 3 different spoilage yeast ([2]; summary of examples): 400-807 ppm | amount required to inhibit growth of 3 different spoilage yeast ([2]; in complex with α-cyclodextrin, high acid model beverage pH 3.4, 10% grape juice (Example 3)): 800 mg/L | amount required to inhibit growth of 3 different spoilage yeast [2, 7]: 800 mg/L | amount required to inhibit growth of 3 different spoilage yeast ([2]; in complex with β-cyclodextrin, high acid model beverage pH 3.4, 10% grape juice (Example 3)): 420 mg/L | amount required to inhibit growth of 3 different spoilage yeast [2, 8]: 420 mg/L | MIC ([2]; in complex with β-cyclodextrin, summary of examples): 400 mg/L | MIC ([2]; non-complex form, summary of examples): > 600 mg/L

CCCOC(=O)c1ccc(O)cc1 [propyl paraben, Propyl paraban]
amount in complex required to inhibit growth of 3 different spoilage yeast ([2]; summary of examples): 510-600 ppm | amount required to inhibit growth of 3 different spoilage yeast ([2]; in complex with α-cyclodextrin, high acid model beverage pH 3.4, 10% apple juice (Example 1)): 510 mg/L | amount required to inhibit growth of 3 different spoilage yeast ([2]; in complex with α-cyclodextrin, low acid model beverage pH 5.8 (Example 2)): 510 mg/L | amount required to inhibit growth of 3 different spoilage yeast ([2]; in complex with β-cyclodextrin, high acid model beverage pH 3.4, 10% apple juice (Example 1)): 600 mg/L | amount required to inhibit growth of 3 different spoilage yeast ([2]; in complex with β-cyclodextrin, low acid model beverage pH 5.8 (Example 2)): 650 mg/L

CCCCCCCCCC=O [Decanal]
MIC (spoilage organisms; 2688 h, read-out: MIC): 47 mg/L

C/C=C/C=C/C(=O)O [Sorbic acid]
MIC (spoilage organisms; 2688 h, read-out: MIC): 1200 mg/L

C/C(C=O)=C\c1ccccc1 [methyl trans cinnamylaldehyde]
MIC (spoilage organisms): 58.4 ppm

C=C(C)C1CC=C(C=O)CC1 (stereo not drawn) [perillaldehyde]
MIC (spoilage organisms; 2688 h, read-out: MIC): 500 mg/L

CCCCCCCCC(=O)OC [Methyl nonaoate]
MIC (spoilage organisms): 90 ppm

CCCCCCCCCCC=O [Undecanal]
MIC (spoilage organisms; 2688 h, read-out: MIC): 34 mg/L

Cc1ccc(C(C)C)c(O)c1 [thymol]
MIC (spoilage organisms; 2688 h, read-out: MIC): 250 mg/L

O=C(O)C=Cc1ccccc1 [Cinnamic acid]
MIC (spoilage organisms; 2688 h, read-out: MIC): 300 mg/L

CCCCCCCCC(=O)O [Nonanoic acid]
MIC (spoilage organisms; 2688 h, read-out: MIC): 63 mg/L

CCCCCCCC1CCC(=O)O1 (stereo not drawn) [Undecalactone]
MIC (spoilage organisms): 28 ppm

CCCCCCCCCCO [1-Decanol]
MIC (spoilage organisms; 2688 h, read-out: MIC): 24 mg/L

CCCOC(=O)c1ccccc1 [Propyl benzoate]
MIC (spoilage organisms; 2688 h, read-out: MIC): 66 mg/L

O=C(OCc1ccccc1)c1ccc(O)cc1 [Benzyl-4-hydroxbenzoate]
MIC (spoilage organisms): 68 ppm

O=C(O)CCCC1CCCCC1 [Cyclohexanebutyric acid]
MIC (spoilage organisms; 2688 h, read-out: MIC): 68 mg/L

CCCCCC1CCC(=O)O1 (stereo not drawn) [Nonanoic lactone]
MIC (spoilage organisms): 63 ppm

O=CC=Cc1ccccc1 [Cinnamaldehyde]
MIC (spoilage organisms; 2688 h, read-out: MIC): 66 mg/L

CCCCC/C=C/C=C/C=O [Trans, trans, 2,4 decadienal]
MIC (spoilage organisms): 8 ppm | solubility in the form of a complex with alpha or beta cyclodextrin [1, 9]: ≤ 0.28 mg/mL | solubility in the form of a complex with alpha or beta cyclodextrin [1, 4]: ≤ 0.28 mg/mL | solubility limit [1, 9]: 0.0054 mg/mL (≈ 35.5 µM) | solubility limit [1, 4]: 0.0058 mg/mL (≈ 38.1 µM) | limit of solubility in beverage ([1]; summary of examples): 0.057 mg/mL | solubility in the form of a complex with alpha or beta cyclodextrin ([1]; summary of examples): ≤ 0.28 mg/mL | effective as a stand alone chemical preservative [2, 5]: not effective | effective as a stand alone chemical preservative ([2]; at solubility limit concentration, high acid model beverage pH 3.4, 5% grape and 5% apple juice (Example 5)): not effective | effective as a stand alone chemical preservative [2, 6]: did not prove effective | amount in complex required to inhibit growth of 3 different spoilage yeast ([2]; summary of examples): 57-124 ppm | amount required to inhibit growth of 3 different spoilage yeast ([2]; in complex with α-cyclodextrin, high acid model beverage pH 3.4, 5% grape and 5% apple juice (Example 5)): 60 mg/L | amount required to inhibit growth of 3 different spoilage yeast [2, 7]: 57 mg/L | amount required to inhibit growth of 3 different spoilage yeast ([2]; in complex with β-cyclodextrin, high acid model beverage pH 3.4, 5% grape and 5% apple juice (Example 5)): 125 mg/L | amount required to inhibit growth of 3 different spoilage yeast [2, 8]: 123 mg/L

COc1ccccc1C=CC=O [o-methoxycinnamylaldehyde]
MIC (spoilage organisms): 58 ppm

CC(=O)OCCC1CCCCC1 [2-Cyclohexylethyl acetate]
MIC (spoilage organisms; 2688 h, read-out: MIC): 102 mg/L
